Measurements reported in patent US20260234165A1, “MACROCYCLIC COMPOUNDS, PREPARATION METHOD THEREFOR, AND USE THEREOF” (GENFLEET THERAPEUTICS (SHANGHAI) INC., priority 2004, published 2026).
Structures can show the parent of a compound that is named as a salt. Where two headings read alike, the source gives them in different places.

Experiments:
Format in all cases: cell-based, human
[1] = system: AsPC-1 cells (KRAS G12D mutation); test: 3D cell proliferation assay (CellTiter Glo-3D), AsPC-1; conditions: medium with 2% FBS, read-out: AsPC-1 AP IC50
Description: (§1) MIA PaCa-2 cells were purchased from ATCC, Cat. No. CRL-1420; AsPC-1 cells were purchased from ATCC, Cat. No. CRL-1682; NCI-H441 cells were purchased from ATCC, Cat. No. HTB-174: NCI-H1975 cells were purchased from ATCC. Cat. No. CRL-5908; DMEM medium was purchased from Gibco, Cat. No. 11995-065: RPMI-1040 medium was purchased from Gibco. Cat. No. H 18754093; FBS was purchased from Gibco, Cat. No. 10099-141C. penicillin, streptomycin double-antibiotic solution (PS) was purchased from Gibco, Cat. No. 15140-122; Horse serum was purchased from Gibco. Cat. No. 16050130: trypsin (containing EDTA) was purchased from Gibco, Cat. No. 25200-072; DMSO was purchased from VWRAMRESCO, Cat. No. 0231-500ML; 384-well cell culture plates were purchased from Corning, Cat. No. 3830; white-bottomed, opaque 384-well assay plates were purchased from Corning, Cat. No. 3570. CellTiter Glo-3D) kit was purchased from Promega. Cat. No. G9683; cell counter was purchased from CHEMOMETEC, model: NC-200: microplate reader was purchased from PerkinElmer, model: EnVision.
(§2) MIA PaCa-2, a human pancreatic cancer cell strain endogenously containing a KRAS^G12C mutation, was cultured in a complete medium containing DMEM+10% FBS+2.5% Horse serum+1% PS. AsPC-1, a human pancreatic cancer cell strain endogenously containing a […] mutation, was cultured in a complete medium containing RPMI-1640+10% FBS+1% PS. NCI-H441 cells, a human lung cancer cell strain endogenously containing a […] mutation, were cultured in a complete medium containing RPMI-1640+10% FBS+1% PS. NCI-H1975, a KRAS wild-type human lung cancer cell strain whose cell proliferation depends on KRAS activity, was cultured in a complete medium containing RPMI-1640+10% FBS+1% PS.
(§3) The cells were digested with trypsin (containing EDTA), collected in their respective low-serum complete media containing 2% FBS (for MIA Paca-2 cell culture: DMEM+2% FBS+0.5% Horse serum+1% PS), and counted. After the cell density was adjusted as required, 200 MIA PaCa-2 cells, 800 AsPC-1 cells, 800 NCI-H441 cells, or 400 NCI-H1975 cells per well were seeded into a 384-well cell culture plate, with the volume of the medium in each well being 45 μL. The cell culture plate was incubated in an incubator at 37° C. with 5% CO2, overnight. A series of 3.16-fold gradient dilutions of a 1000× compound stock solution were prepared with DMSO, and then diluted 100-fold with the complete medium containing 2% FBS described above to give 10- compound stock solutions. On the day after cell seeding, 5 μL of the 10- compound stock solution was added to each cell culture well. As a result, the final concentration of the compound in the cell culture well became 1×, and the DMSO content in the well was 0.1%. In addition to the compound-treated wells described above, cell-containing DMSO control wells (with 5 μL of the complete medium containing 1% DMSO added to each well) and cell-free medium control wells (containing 50 μL of the complete medium with 2% FBS) were also set. The culture plate was incubated in an incubator at 37° C. with 5% CO2 for another 5 days, and then 30 μL of CellTiter-Glo working solution was added to each well. The mixture was well mixed, incubated for 30 min, left to stand at room temperature for 30 min, and then transferred to a white-bottomed, opaque 384-well assay plate at 40 μL/well. The chemiluminescence values (RLU) were measured using a microplate reader, and the cell proliferation inhibition rate for each well was calculated: IR (%)=(RLUDMSO—RLUcompound)/(RLUDMSO−RLUblank)×100%, where RLUDMSO is the average RLU signal value from the DMSO control well samples, RLUblank is the average RLU signal value from the medium control well samples, and RLUcompound is the RLU signal value from the compound-treated well samples. […]

NCI-H441 cells = test: 3D cell proliferation assay (CellTiter Glo-3D), NCI-H441; conditions: medium with 2% FBS, read-out: H441 AP IC50
Description: as §1, §2, §3

[2] = system: p-ERK in NCI-H441 cells (KRAS G12V mutation); test: Cell p-ERK assay (HTRF) in NCI-H441 cells; conditions: NCI-H441 cells, 3 h compound incubation, HTRF p-ERK T202/Y204, read-out: H441 p-ERK IC50
Outline: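 IC50 values derive from four-parameter fitting of p-ERK (T202/Y204) HTRF inhibition, normalized to DMSO and blank controls. The lysates came from cells exposed for 3 h to serial 3.16-fold compound dilutions at 0.1% DMSO, after overnight plating at 10000 AsPC-1 or 20000 NCI-H441 cells per well.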

[3] = system: p-ERK in AsPC-1 cells (KRAS G12D mutation); test: Cell p-ERK assay (HTRF) in AsPC-1 cells; conditions: AsPC-1 cells, 3 h compound incubation, HTRF p-ERK T202/Y204, read-out: AsPC-1 p-ERK IC50
Experimental: AsPC-1 cells were purchased from ATCC, Cat. No. CRL-1682: NCI-H441 cells were purchased from ATCC, Cat. No. HTB-174: RPMI-1640 medium was purchased from Gibco, Cat. No. I1875-093: FBS was purchased from Gibco, Cat. No. 10099-141C: penicillin/streptomycin double-antibiotic solution (PS) was purchased from Gibco, Cat. No. 15140-122: trypsin (containing EDTA) was purchased from Gibco, Cat. No. 25200-072; DMSO was purchased from VWRAMRESCO, Cat. No. 0231-500ML; 96-well cell culture plates were purchased from Corning, Cat. No. 3599: white-bottomed, opaque 96-well plates were purchased from Cisbio, Cat. No. 66PL96025; Advance ERK phospho-T202/Y204 kit was purchased from Cisbio, Cat. No. 64AERPEH; cell counter was purchased from CHEMOMETEC, model: NC-200; microplate reader was purchased from PerkinElmer, model: EnVision.
AsPC-1, a human pancreatic cancer cell strain endogenously containing a KRAS^G12D mutation, was cultured in a complete medium containing RPMI-1640+10% FBS+1% PS. NCI-H441, a human non-small cell lung cancer cell strain endogenously containing a KRAS^G12V mutation, was cultured in a complete medium containing RPMI-1640+10% FBS+1% PS.
The cells were digested with trypsin (containing EDTA), collected in their corresponding complete media, and counted. The density of the cell suspensions was adjusted with their corresponding complete media, and 10000 AsPC-1 cells or 20000 NCI-H441 cells per well were seeded into a 96-well cell culture plate, with the volume of the medium in each well being 80 μL.
The cell culture plate was incubated in an incubator at 37° C. with 5% CO2 overnight. A series of 3.16-fold gradient dilutions of a 1000- compound stock solution were prepared with DMSO, and then diluted 200-fold with the complete medium described above to give 5′ compound stock solutions. On the day after cell seeding, 20 μL of the 5× compound stock solution was added to each cell culture well. As a result, the final concentration of the compound in the cell culture well became 1×, and the DMSO content in the well was 0.1%. In addition to the compound-treated wells described above, cell-containing DMSO control wells were also set. A complete medium containing 0.5% DMSO was added at 20 μL/well. After the mixture was well mixed, the culture plate was incubated in the incubator at 37° C. with 5% CO2 for another 3 h. The medium was then removed from the culture wells, and 50 μL of cell lysis buffer (from Advance ERK phospho-T202,Y204 kit) was added to each well. The mixture was well mixed and incubated for 30 min. Then, 16 μL of the mixture was transferred to a white-bottomed, opaque 96-well assay plate, and separately, 16 μL of cell lysis buffer was added to additional wells (serving as blank wells) in the assay plate. After the transfer was completed, 4 μL of p-ERK HTRF antibody mixture (from Advance ERK phospho-T202/Y204 kit) was added to each well of the assay plate, followed by a 4-hour incubation. The HTRF signal values (RLU) were then measured using a microplate reader, and the inhibition rate of the compound against p-ERK levels was calculated as follows: IR (%)=(RLUDMSO−RLUcompound)/(RLUDMSO−RLUblank)×100%, where RLUDMSO is the average HTRF signal value from the DMSO control well samples, RLUblank is the average HTRF signal value from the blank well samples, and RLUcompound is the HTRF signal value from the compound-treated well samples. Using an XLfit software, the IR (%) values were plotted against the logarithm of the compound concentrations, and the dose-response curves were fitted using the four-parameter method to calculate the IC50 values.

[4] = 3D cell proliferation (CellTiter Glo-3D)
[5] = Homo sapiens, NCI-H441, 3D cell proliferation (CellTiter Glo-3D)

IC50 (NCI-H441 cells; [4]) [nM]	IC50 (NCI-H441 cells; [5]) [nM]	IC50 ([2]; Homo sapiens, NCI-H441, 3 h) [nM]	IC50 ([3]; Homo sapiens, ASPC1, 3 h) [nM]	Compound	also measured
–	27.6	26.1	92	CCn1c(-c2cc(N3CCN(C)CC3)cnc2[C@H](C)OC)c2c3cc(ccc31)-c1csc(n1)C[C@H](Nc1cccnn1)C(=O)N1CCC[C@H](N1)C(=O)OCC(C)(C)C2 (atropisomer, axis not shown; (Ra)) [Compound Z457, (6^3S,4S,Z)-1^1-ethyl-(Ra)-1^2-(2-((S)-1-methoxyethyl)-5-(4-methylpiperazin-1-yl)pyridin-3-yl)-10,10-dimethyl-4-(pyridazin-3-ylamino)-6^1,6^2,6^3,6^4,6^5,6^6-hexahydro-1^1H-8-oxa-2(4,2)-thiazola-1(5,3)-indola-6(1,3)-pyridazinacycloundecaphane-5,7-dione]	–
–	58.4	28.2	69	CCn1c(-c2cc(N3CCN4CC5(CC5)OC[C@@H]4C3)cnc2[C@H](C)OC)c2c3cc(ccc31)-c1csc(n1)C[C@H](NC(=O)[C@H]1[C@H](C)[C@@H]1C)C(=O)N1CCC[C@H](N1)C(=O)OCC1(CCC1)C2 [Compound Z467, (1r,2R,3S)—N-((3′S,4′S,Z)-1′-ethyl-2′-(2-((S)-1-methoxyethyl)-5-((S)-tetrabydro-4H-spiro[cyclopropane-1,3′-pyrazino[2,1-c][1,4]oxazin]-8′(1′H)-yl)pyridin-3-yl)-5′,7′-dioxospiro[cyclobutane-1,10′-8-oxa-2(4,2)-thiazola-1(5,3)-indola-6(1,3)-pyridazinacycloundecaphan]-4′-yl)-2,3-dimethylcyclopropane-1-carboxamide]	–

Second part, the compound before the results:

Compound	IC50 (NCI-H441 cells; [4]) [nM]	IC50 (NCI-H441 cells; [5]) [nM]	IC50 ([2]; Homo sapiens, NCI-H441, 3 h) [nM]	IC50 ([3]; Homo sapiens, ASPC1, 3 h) [nM]	also measured
CCn1c(-c2cc(N3CCN(C)CC3)cnc2[C@H](C)OC)c2c3cc(ccc31)-c1csc(n1)C[C@H](Nc1ccccn1)C(=O)N1CCC[C@H](N1)C(=O)OCC(C)(C)C2 (atropisomer, axis not shown; (Ra)) [Compound Z69, (6^3S,Z)-1^1-ethyl-(Ra)-1^2-(2-((S)-1-methoxyethyl)-5-(4-methylpiperazin-1-yl)pyridin-3-yl)-10,10-dimethyl-4-(pyridin-2-ylamino)-6^1,6^2,6^3,6^4,6^5,6^6-hexahydro-1^1H-8-oxa-2(4,2)-thiazola-1(5,3)-indola-6(1,3)-pyridazinacycloundecaphane-5,7-dione]	399	–	–	–	IC50 [1, 4]: 347 nM
CCn1c(-c2cc(N3CCN(C)CC3)cnc2[C@H](C)OC)c2c3cc(ccc31)-c1csc(n1)C[C@H](NC1CCN(C)C1=O)C(=O)N1CCC[C@H](N1)C(=O)OCC(C)(C)C2 (atropisomer, axis not shown; (Ra)) [Compound Z70, (6^3S,4S,Z)-1^1-ethyl-(Ra)-1^2-(2-((S)-1-methoxyethyl)-5-(4-methylpiperazin-1-yl)pyridin-3-yl)-10,10-dimethyl-4-((1-methyl-2-oxopyrrolidin-3-yl)amino)-6^1,6^2,6^3,6^4,6^5,6^6-hexahydro-1^1H-8-oxa-2(4,2)-thiazola-1(5,3)-indola-6(1,3)-pyridazinacycloundecaphane-5,7-dione formate]	–	344	–	–	IC50 ([1]; Homo sapiens, ASPC1, 3D cell proliferation (CellTiter Glo-3D)): 416 nM
(2R)—N-(5-((6^3S,4S,Z)-4-((1r, 2R,3S)-2,3-dimethylcyclopropane-1-carboxamido)-1^1-ethyl-10,10-dimethyl-5,7-dioxo-6^1,6^2,6^3,6^4,6^5,6^6-hexahydro-1^1H-8-oxa-2(4,2)-thiazola-1(5,3)-indola-6(1,3)-pyridazinacycloundecaphane-2-yl)-6-((S)-1-methoxyethyl)pyridin-3-yl)-N,1-dimethylazepane-2-carboxamide [Compound Z355]	54.7	–	–	–	IC50 [2]: 45.7 nM; IC50 [3]: 109 nM
